Results reported in ChEMBL document CHEMBL1152823, “Identification of novel epoxide inhibitors of hepatitis C virus replication using a high-throughput screen” (Antimicrob Agents Chemother, 2007).

Experiments:
Hepatitis C virus [1] = experiment: Antiviral activity against HCV replication in human HuH7 cells expressing Rep-Feo replicon by luciferase assay; type: functional, organism-based, Hepacivirus hominis; settings: Huh-7
[2] = Cytotoxicity against human HuH7 cells; type: cell-based, Huh-7
Hepatitis C virus [3] = experiment: Antiviral activity against HCV JFH1 replication in human Huh7.5.1 cells at 1 uM after 48 hrs by quantitative RT-PCR analysis relative to 1 ng/ml interferon; type: functional, Hepacivirus hominis, JFH-1, Huh-7
Hepatitis C virus [4] = experiment: Antiviral activity against HCV JFH1 replication in human Huh7.5.1 cells at 5 uM after 48 hrs by quantitative RT-PCR analysis relative to 1 ng/ml interferon; type: functional, Hepacivirus hominis, JFH-1, Huh-7

## C#CCCCO/N=C1/[C@H]2CCN3C(=O)N([C@@H](CC)c4ccccc4)CN3[C@H]2[C@H](O)[C@@H]2O[C@H]12
Hepatitis C virus [1]
  EC50: 3.8 µM
[2]
  CC50: > 50 µM

## O=c1n(-c2ccccc2)c(=O)n2n1CC[C@@H]1/C(=N\OC[C@@H](O)COCc3ccco3)[C@H]3O[C@H]3[C@@H](O)C12 (stereo partly specified)
Hepatitis C virus [1]
  EC50: 7 µM
[2]
  CC50: > 50 µM

## O=C1C2C=C(I)C(CC2OCCCCCCO)[C@]12CO2 (stereo partly specified)
Hepatitis C virus [1]
  EC50: 26.7 µM
[2]
  CC50: > 50 µM

## CO[C@]12C=C(Br)C(CC1c1cccc(C)c1)[C@]1(CO1)C2=O (stereo partly specified)
Hepatitis C virus [1]
  EC50: 8 µM
[2]
  CC50: > 50 µM

## O=C1C2C=C(I)C(CC2c2ccccc2)[C@]12CO2 (stereo partly specified)
Hepatitis C virus [1]
  EC50: 9.1 µM
[2]
  CC50: > 50 µM

## O=C1C2C=C(I)C(CC2OCCCCO)[C@]12CO2 (stereo partly specified)
Hepatitis C virus [1]
  EC50: 25.7 µM
[2]
  CC50: > 50 µM

## C[C@H](O/N=C1\[C@H]2CCn3c(=O)n(-c4ccccc4)c(=O)n3C2[C@H](O)[C@@H]2O[C@H]12)c1cn([C@H](CO)Cc2ccccc2)nn1 (stereo partly specified)
Hepatitis C virus [1]
  EC50: 7 µM
[2]
  CC50: > 50 µM

## O=C1[C@@]2(CO)C=C(I)C(CC2c2ccccc2)[C@]12CO2 (stereo partly specified)
Hepatitis C virus [1]
  EC50: 3.5 µM
Hepatitis C virus [3]
  Activity: 45.1%
[2]
  CC50: 27.1 µM
Hepatitis C virus [4]
  Activity: 48.4%

## C[C@@H](O/N=C1\[C@H]2CCn3c(=O)n(-c4ccccc4)c(=O)n3C2[C@H](O)[C@@H]2O[C@H]12)c1cn([C@H](CO)Cc2ccccc2)nn1 (stereo partly specified)
Hepatitis C virus [1]
  EC50: 7.6 µM
[2]
  CC50: > 50 µM

## O=C1C2C=C(Br)C(CC2c2ccccc2)[C@]12CO2 (stereo partly specified)
Hepatitis C virus [1]
  EC50: 19.7 µM
[2]
  CC50: > 50 µM

## C[C@@]12COC[C@]13C=C(Br)C(C2)[C@]1(CO1)C3=O
Hepatitis C virus [1]
  EC50: 12.7 µM
[2]
  CC50: > 50 µM

## O=C1C2C=C(I)C(CC2OCCCCO)[C@]12CCCO2 (stereo partly specified)
Hepatitis C virus [1]
  EC50: > 30 µM
[2]
  CC50: > 50 µM

## CC(=O)OC[C@H]1OC(CCO/N=C2/[C@H]3CCn4c(=O)n(-c5ccccc5)c(=O)n4[C@H]3[C@H](O)[C@@H]3O[C@H]23)C=C[C@@H]1OC(C)=O (stereo partly specified)
Hepatitis C virus [1]
  EC50: 0.7 µM
[2]
  CC50: 9 µM

## CC(=O)OC[C@H]1O[C@@H](O/N=C2/[C@H]3CCn4c(=O)n(-c5ccccc5)c(=O)n4C3[C@H](O)[C@@H]3O[C@H]23)[C@H](OC(C)=O)[C@@H](OC(C)=O)[C@@H]1OC(C)=O (stereo partly specified)
Hepatitis C virus [1]
  EC50: 42.9 µM
[2]
  CC50: > 50 µM

## COc1ccc(O[C@H]2C=C[C@@H](c3ccccc3)O[C@@H]2CO/N=C2/[C@H]3CCn4c(=O)n(-c5ccccc5)c(=O)n4[C@H]3[C@H](O)[C@@H]3O[C@H]23)cc1
Hepatitis C virus [1]
  EC50: 2.6 µM
[2]
  CC50: 18 µM

## COc1ccc(O[C@H]2C=C[C@@H](c3ccccc3)O[C@@H]2CO/N=C(\C)CCN2CCc3nc(-c4ccccc4)c(-c4ccccc4)cc3C2)cc1
Hepatitis C virus [1]
  EC50: 21.1 µM
[2]
  CC50: > 50 µM

## CC[C@@H](c1ccccc1)N1CN2[C@H]3[C@H](O)[C@@H]4O[C@@H]4/C(=N\OC[C@@H](O)COCc4ccco4)[C@H]3CCN2C1=O
Hepatitis C virus [1]
  EC50: 2.5 µM
[2]
  CC50: > 50 µM

## c1ccc(C2NCCc3c2[nH]c2ccccc32)cc1 (stereo unspecified)
Hepatitis C virus [1]
  EC50: 30 µM
[2]
  CC50: > 50 µM

## CCCNC(=O)OC[C@H]1O[C@H](CCO/N=C(\C)CCN2CCc3nc(-c4ccccc4)c(-c4ccccc4)cc3C2)C=C[C@@H]1Oc1ccc(OC)cc1
Hepatitis C virus [1]
  EC50: 14.2 µM
[2]
  CC50: > 50 µM

## Cc1cc2c(nc1C)CCCN2C[C@H](C)O/N=C1\[C@H]2CCn3c(=O)n(-c4ccccc4)c(=O)n3[C@H]2[C@H](O)[C@@H]2O[C@H]12
Hepatitis C virus [1]
  EC50: 1.5 µM
[2]
  CC50: 39.3 µM

## O=C1C2C=C(Br)C(CC2OCCCCCCO)[C@]12CO2 (stereo partly specified)
Hepatitis C virus [1]
  EC50: 19.6 µM
[2]
  CC50: > 50 µM

## O=C1[C@@]2(CO)C=C(Br)C(CC2c2ccccc2)[C@]12CO2 (stereo partly specified)
Hepatitis C virus [1]
  EC50: 6.6 µM
[2]
  CC50: > 50 µM

## Cc1cc(C)c(-c2cc([C@H](C)O/N=C3\[C@H]4CCn5c(=O)n(-c6ccccc6)c(=O)n5C4[C@H](O)[C@@H]4O[C@H]34)on2)c(C)c1 (stereo partly specified)
Hepatitis C virus [1]
  EC50: < 0.5 µM
Hepatitis C virus [3]
  Activity: 45.1%
[2]
  CC50: 19.5 µM
Hepatitis C virus [4]
  Activity: 48.4%

## C=CC[C@@H]1C=C[C@H](O/N=C2\[C@H]3CCn4c(=O)n(-c5ccccc5)c(=O)n4[C@H]3[C@H](O)[C@@H]3O[C@H]23)[C@@H](CO)O1
Hepatitis C virus [1]
  EC50: 7.75 µM
[2]
  CC50: 35.3 µM

## C#CCCCO/N=C1/[C@H]2CCN3C(=O)N(c4ccccc4)CN3[C@H]2[C@H](O)[C@@H]2O[C@H]12
Hepatitis C virus [1]
  EC50: 1.4 µM
[2]
  CC50: > 50 µM

## C#CCCCO/N=C1/C[C@@H](O)[C@@H](O)[C@@H]2[C@@H]3C(=O)N(CCC(=O)OCC)C(=O)[C@@H]3CC[C@@H]12
Hepatitis C virus [1]
  EC50: > 100 µM
[2]
  CC50: > 50 µM
